In PMC2898210 (ACS medicinal chemistry letters, 2010) one finds Kd data, which are given here for one compound.

Each structure is given as a SMILES string.

The target of the assay is polo-box domain (PBD) of human polo-like kinase 1 (Plk1) (Homo sapiens, UniProt P53350). Description: ELISA-based PBD competition assay against p-T78 peptide of PBIP1. It counts as binding.
Sequence of polo-box domain (PBD) of human polo-like kinase 1 (Plk1) (P53350 367-603 limits assumed): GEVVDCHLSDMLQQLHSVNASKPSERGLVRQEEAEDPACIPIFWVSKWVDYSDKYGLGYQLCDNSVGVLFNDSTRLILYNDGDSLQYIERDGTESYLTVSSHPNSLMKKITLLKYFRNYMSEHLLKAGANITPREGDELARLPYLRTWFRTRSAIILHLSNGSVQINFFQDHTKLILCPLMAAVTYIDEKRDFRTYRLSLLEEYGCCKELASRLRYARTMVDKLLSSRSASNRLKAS

Consider `O=c1c(O)cccc2cc(O)c(O)c(O)c12` [compound 2, Purpurogallin], for which the Kd was roughly 2700 nM.
